pIC50: −log10 of the molar value. Converted amounts (≈) assume the structure as drawn.
Experiments:
[1] = system: prostate cancer cells (PC3 line); assay: MTT cytotoxicity assay, PC3; type: cell-based, human; conditions: for pIC50: Homo sapiens, PC-3, PC3 cells, 48 h treatment, MTT; for SI PC3 (selectivity index): ratio of IC50 for normal cell line (HaCaT) to IC50 for PC3, 48 h
Protocol: (§1) The MTT assay was performed to specify the cytotoxicity of 7–12 and 13–18 against prostate cancer cells (PC3 line), breast cancer cells (MCF7 line), and human keratinocytes (HaCaT line). The mentioned cell lines were assayed by exposing them for 48 h to a medium containing the studied compounds over a wide range of concentrations. The IC50 values (dose of the compound which caused a 50% reduction of cell viability) and the selectivity indexes (SI), which show the ratio of IC50 for normal cell line to IC50 for cancer cell line, are shown in Table S2. An MTT assay was performed to specify the cytotoxicity of the studied compounds against breast cancer cells (MCF-7 line, ATCC), prostate cancer cells (PC3 line, ATCC) and human keratinocytes (HaCaT line, CLS). The MCF-7 cell line was cultured in an RPMI 1640 medium (Gibco, Thermo Fisher Scientific), the PC3 cell line in a F-12K medium (Gibco, Thermo Fisher Scientific), and the HaCaT cell line in a high-glucose DMEM (Gibco, Thermo Fisher Scientific). Each medium was supplemented with 10% fetal bovine serum (Gibco, Thermo Fisher Scientific) and antibiotics (penicillin and streptomycin, Gibco, Thermo Fisher Scientific). Cells were seeded at a density of 4000 per well into 96-well plates and incubated at 37 °C in a 5% CO2 atmosphere. The cells were treated with studied compounds in a concentration range of 0.1–100 μg/mL or with a vehicle (1% DMSO) as a control and subsequently incubated for 48 h. Thereafter, the MTT salt solution (3-(4,5-dimethylthiazol-2-yl)-2,5-diphenyltetrazolium bromide, VWR) was added at a concentration of 4 mg/mL (25 μL per well), and the obtained product (formazan) after 3 h of incubation was dissolved in DMSO. An EnSpire microplate reader (PerkinElmer) was used to measure absorbance at 570 nm (the reference wavelength was 660 nm). The viability of the control cells was taken as 100%. Three independent experiments were conducted in triplicate. Statistical analysis of the results and estimation of IC50 values were performed using GraphPad Prism 7 software.

[2] = system: breast cancer cells (MCF-7 line); assay: MTT cytotoxicity assay, MCF7; type: cell-based, human; conditions: for pIC50: Homo sapiens, MCF7 cells, 48 h treatment, MTT; for SI MCF7 (selectivity index): ratio of IC50 for normal cell line (HaCaT) to IC50 for MCF7, 48 h
Protocol: as §1

[3] = system: human keratinocytes (HaCaT line); assay: MTT cytotoxicity assay, HaCaT; type: cell-based; conditions: Homo sapiens, HaCaT normal cells, 48 h treatment
Protocol: as §1

E. faecium ATCC 29212 = assay: MIC, broth dilution method; type: cell-based; conditions: Enterococcus faecium, ATCC29212; MHB II, 18 h, 37 °C; read-out: Minimum inhibitory concentration E. faecium ATCC 29212
Protocol: (§2) MIC was determined with the dilution method in Mueller–Hinton II broth (MHB II) on 96-well polystyrene plates. The reference strains (Polish Academy of Sciences, Wroclaw, Poland) of Gram-positive bacteria (Enterococcus faecium ATCC 29,212, S. aureus ATCC 6538, S. aureus ATCC 43,300, S. aureus ATCC 12,598, S. aureus ATCC 25,923, S. aureus, ATCC 33,591, Staphylococcus epidermidis ATCC 14,990) and Gram-negative bacteria (Acinetobacter baumanii ATCC 23,506, Escherichia coli ATCC 25,922, Klebsiella pneumoniae ATCC 700,603, Pseudomonas aeruginosa ATCC 9027) were suspended in MHB II medium to initial inoculum of 10^5 cfu/mL. The microbes were exposed to graded concentrations of tested compounds (range 0.5–256 mg/L) for 18 h at 37 °C under aerobic conditions. The compounds were dissolved in DMSO and then diluted with PBS. […] MIC was taken as the lowest concentration at which no microbial growth was observed. The experiments were performed in triplicate.

S. aureus ATCC 12598 = assay: MIC, broth dilution method; type: cell-based; conditions: Staphylococcus aureus, ATCC12598; MHB II, 18 h, 37 °C; read-out: Minimum inhibitory concentration S. aureus ATCC 12598
Protocol: as §2

S. aureus ATCC 25923 = assay: MIC, broth dilution method; type: cell-based; conditions: Staphylococcus aureus, ATCC25923; MHB II, 18 h, 37 °C; read-out: Minimum inhibitory concentration S. aureus ATCC 25923
Protocol: as §2

S. aureus ATCC 33591 = assay: MIC, broth dilution method; type: cell-based; conditions: Staphylococcus aureus, ATCC33591; MHB II, 18 h, 37 °C; read-out: Minimum inhibitory concentration S. aureus ATCC 33591
Protocol: as §2

S. aureus ATCC 43300 = assay: MIC, broth dilution method; type: cell-based; conditions: Staphylococcus aureus, ATCC43300; MHB II, 18 h, 37 °C; read-out: Minimum inhibitory concentration S. aureus ATCC 43300
Protocol: as §2

S. aureus ATCC 6538 = assay: MIC, broth dilution method; type: cell-based; conditions: Staphylococcus aureus, ATCC6538; MHB II, 18 h, 37 °C; read-out: Minimum inhibitory concentration S. aureus ATCC 6538
Protocol: as §2

[4] = system: S. epidermidis ATCC 14990; assay: MIC, broth dilution method; type: cell-based; conditions: Staphylococcus epidermidis, ATCC14990; MHB II, 18 h, 37 °C; read-out: Minimum inhibitory concentration S. epidermidis ATCC 14990
Protocol: as §2

[5] = system: Staphylococcus aureus strains tested, including methicilin-resistant S. aureus; assay: Antistaphylococcal activity, summary over the strains tested; type: cell-based; conditions: range over the S. aureus strains tested
Protocol: as §2

SMILES | pIC50 [1] | SI PC3 (selectivity index) [1] | pIC50 [2] | SI MCF7 (selectivity index) [2] | pIC50 [3] | MIC (E. faecium ATCC 29212) | MIC (S. aureus ATCC 12598) | MIC (S. aureus ATCC 25923) | MIC (S. aureus ATCC 33591) | MIC (S. aureus ATCC 43300) | MIC (S. aureus ATCC 6538) | MIC [4] | concentrations at which antistaphylococcal activity was achieved [5]
C[C@@H]1CC[C@@]2(OC1)O[C@H]1C[C@H]3[C@@H]4CC=C5C[C@@H](O[C@@H]6CC[C@@H](O)[C@@H](CO)O6)CC[C@]5(C)[C@H]4CC[C@]3(C)[C@H]1[C@@H]2C [14α, Diosgenyl 2,3-Dideoxy-α-D-threo-hexopyranoside] | 4.39 | 1.29 | 4.60 | 2.13 | 4.27 | > 256 µg/mL | 256 µg/mL (≈ 470 µM) | 64 µg/mL (≈ 117 µM) | 256 µg/mL (≈ 470 µM) | 128 µg/mL (≈ 235 µM) | 64 µg/mL (≈ 117 µM) | > 256 µg/mL | 64 to 256 mg/L
C[C@@H]1CC[C@@]2(OC1)O[C@H]1C[C@H]3[C@@H]4CC=C5C[C@@H](O[C@H]6C=C[C@H](O)[C@H](C)O6)CC[C@]5(C)[C@H]4CC[C@]3(C)[C@H]1[C@@H]2C [10α, Diosgenyl 2,3,6-Trideoxy-α-L-threo-hex-2-enopyranoside] | 4.30 | 1.02 | 4.24 | 0.88 | 4.29 | > 256 µg/mL | > 256 µg/mL | > 256 µg/mL | > 256 µg/mL | > 256 µg/mL | > 256 µg/mL | > 256 µg/mL | –
C[C@@H]1CC[C@@]2(OC1)O[C@H]1C[C@H]3[C@@H]4CC=C5C[C@@H](O[C@@H]6C=C[C@H](O)CO6)CC[C@]5(C)[C@H]4CC[C@]3(C)[C@H]1[C@@H]2C [11α] | 4.61 | 1.00 | 4.39 | 0.60 | 4.61 | > 256 µg/mL | > 256 µg/mL | > 256 µg/mL | > 256 µg/mL | > 256 µg/mL | 256 µg/mL (≈ 499 µM) | 256 µg/mL (≈ 499 µM) | –
C[C@@H]1CC[C@@]2(OC1)O[C@H]1C[C@H]3[C@@H]4CC=C5C[C@@H](O[C@@H]6CC[C@H](O)CO6)CC[C@]5(C)[C@H]4CC[C@]3(C)[C@H]1[C@@H]2C [17α] | 4.14 | 0.66 | 4.17 | 0.71 | 4.32 | > 256 µg/mL | 256 µg/mL (≈ 497 µM) | 256 µg/mL (≈ 497 µM) | 256 µg/mL (≈ 497 µM) | 128 µg/mL (≈ 249 µM) | 128 µg/mL (≈ 249 µM) | > 256 µg/mL | 128 to 256 mg/L

Source: publication PMC11494662, “Insight into the Course of the Ferrier Rearrangement Used to Obtain Untypical Diosgenyl Saponins” (The Journal of Organic Chemistry, 2024)
